This passage reports IC50 results from US8471063B2, “Michael systems as transglutaminase inhibitors” (Zedira GmbH, priority 2006, dated 2013).

By IC50 is commonly meant the point on the concentration scale where inhibition reaches its midpoint.

Where a SMILES comes first, the peptide text is derived from it. [ ]: non-standard residue; d: D form. The star is where a group is joined. Nle(5E-ene,6-CO2Et) = CCOC(=O)/C=C/CC[C@H](N)C(=O)O; Cbz = O=C(OCc1ccccc1)* Where only a bound is given, the exact number is not on record here.

Common to all, as to format: biochemical
The target in test [1] is T1, FXIII (Homo sapiens, UniProt P00488).
T1 sequence (P00488 1-732): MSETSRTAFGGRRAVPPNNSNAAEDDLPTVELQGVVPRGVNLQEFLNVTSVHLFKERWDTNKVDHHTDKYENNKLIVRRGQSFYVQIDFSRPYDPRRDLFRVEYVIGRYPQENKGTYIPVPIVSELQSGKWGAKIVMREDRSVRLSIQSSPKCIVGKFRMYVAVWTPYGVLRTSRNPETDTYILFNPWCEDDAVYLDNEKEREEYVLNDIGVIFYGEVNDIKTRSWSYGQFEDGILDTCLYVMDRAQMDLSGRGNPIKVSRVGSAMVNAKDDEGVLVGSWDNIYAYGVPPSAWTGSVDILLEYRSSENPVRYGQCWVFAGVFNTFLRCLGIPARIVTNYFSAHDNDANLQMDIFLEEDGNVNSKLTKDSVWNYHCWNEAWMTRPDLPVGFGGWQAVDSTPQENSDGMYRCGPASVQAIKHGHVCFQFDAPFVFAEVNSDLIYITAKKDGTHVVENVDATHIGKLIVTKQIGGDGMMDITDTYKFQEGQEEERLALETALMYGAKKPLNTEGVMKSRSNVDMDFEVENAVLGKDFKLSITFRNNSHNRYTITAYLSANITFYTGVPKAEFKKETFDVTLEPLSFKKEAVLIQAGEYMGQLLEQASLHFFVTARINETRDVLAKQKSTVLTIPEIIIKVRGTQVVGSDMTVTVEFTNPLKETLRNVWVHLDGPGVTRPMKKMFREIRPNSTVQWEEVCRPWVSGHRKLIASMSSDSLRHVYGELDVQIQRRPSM
Put plainly: Transglutaminase inhibition, IC50 at FXIII.

Test [2] concerns the target T2, recombinant human tissue transglutaminase (His6-rh-TG2) (Homo sapiens, UniProt P21980).
T2 sequence (P21980 1-687): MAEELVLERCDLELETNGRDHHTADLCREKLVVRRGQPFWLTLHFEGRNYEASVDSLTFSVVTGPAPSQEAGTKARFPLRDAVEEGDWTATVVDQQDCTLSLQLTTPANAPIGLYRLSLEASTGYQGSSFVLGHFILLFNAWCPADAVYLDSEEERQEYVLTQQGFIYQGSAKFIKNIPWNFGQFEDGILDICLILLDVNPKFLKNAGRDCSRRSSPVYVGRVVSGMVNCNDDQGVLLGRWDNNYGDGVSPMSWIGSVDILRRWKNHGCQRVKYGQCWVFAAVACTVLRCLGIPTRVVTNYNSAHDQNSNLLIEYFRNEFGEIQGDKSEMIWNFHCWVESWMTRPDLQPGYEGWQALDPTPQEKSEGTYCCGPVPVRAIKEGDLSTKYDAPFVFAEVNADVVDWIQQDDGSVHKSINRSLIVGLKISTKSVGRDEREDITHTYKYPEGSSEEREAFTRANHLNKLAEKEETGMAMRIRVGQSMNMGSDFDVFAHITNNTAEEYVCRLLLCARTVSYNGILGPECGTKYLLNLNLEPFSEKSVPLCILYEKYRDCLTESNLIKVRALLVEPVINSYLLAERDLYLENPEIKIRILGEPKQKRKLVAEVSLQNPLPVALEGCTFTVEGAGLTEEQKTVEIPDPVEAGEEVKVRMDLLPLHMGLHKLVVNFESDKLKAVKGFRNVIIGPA
Put plainly: Inactivation of human tissue transglutaminase, fluorescence assay, IC50. The conditions noted are these: 5 min preincubation, 37° C. The method, then: 250 μg of lyophilized his-tagged recombinant human tissue transglutaminase (His6-rh-TG2) are reconstituted by the addition of 150 μl of water (resulting buffer 50 mM of NaH2PO4, 150 mM of NaCl, pH=8).
A 10 mM inhibitor stock solution in DMSO is prepared and diluted with buffer (50 mM of Tris-HCl, 10 mM of CaCl2, 5 mM of DTT, pH=7.5, respectively) to the 20-fold of the concentration desired for the inhibition mixture (at least 1/50 dilution resulting in 2% DMSO concentration).
900 μl of an assay solution composed of 55.56 mM of Tris, 11.11 mM of CaCl2, 0.11% PEG8000, 5.56 mM of DTT, 5.56 mM of glycine methyl ester and 50 μM of Abz-APE(CAD-DNP)QEA-OH, (patent number:), pH=7.5 are placed in a cuvette and brought to a temperature of 37° C. in the measuring cell of a spectrophotometer. 50 μl of the respective inhibitor solution are added to said solution (resulting in a concentration of less than 0.2% of DMSO in the mixture).
7 μl of the transglutaminase solution reconstituted above are diluted with 51 μl of buffer (50 mM of Tris, 100 mM of NaCl, 5 mM of DTT, pH=7.5). 50 μl of said enzyme solution (10 μg His6-rhTG2) are added to the assay solution containing the respective inhibitor concentration. The mixture is incubated for 5 min at 37° C. before the measurement is performed. λexc=313 nm and λem=418 nm, 15 min)
The resulting enzyme activity was measured by analyzing the slope of the straight line obtained by the increase in fluorescence.
DMSO is used instead of inhibitor stock solution in order to determine the non-inhibited enzyme activity. IC50 values are determined by plotting the resulting enzyme activity against the logarithm of the inhibitor concentration. IC50 is defined as the concentration of an inhibitor at which enzyme activity is reduced to 50% after 5 min of preincubation.

Test [3] deals with T3, TG1 (Homo sapiens, UniProt P22735).
T3 sequence (P22735 1-817): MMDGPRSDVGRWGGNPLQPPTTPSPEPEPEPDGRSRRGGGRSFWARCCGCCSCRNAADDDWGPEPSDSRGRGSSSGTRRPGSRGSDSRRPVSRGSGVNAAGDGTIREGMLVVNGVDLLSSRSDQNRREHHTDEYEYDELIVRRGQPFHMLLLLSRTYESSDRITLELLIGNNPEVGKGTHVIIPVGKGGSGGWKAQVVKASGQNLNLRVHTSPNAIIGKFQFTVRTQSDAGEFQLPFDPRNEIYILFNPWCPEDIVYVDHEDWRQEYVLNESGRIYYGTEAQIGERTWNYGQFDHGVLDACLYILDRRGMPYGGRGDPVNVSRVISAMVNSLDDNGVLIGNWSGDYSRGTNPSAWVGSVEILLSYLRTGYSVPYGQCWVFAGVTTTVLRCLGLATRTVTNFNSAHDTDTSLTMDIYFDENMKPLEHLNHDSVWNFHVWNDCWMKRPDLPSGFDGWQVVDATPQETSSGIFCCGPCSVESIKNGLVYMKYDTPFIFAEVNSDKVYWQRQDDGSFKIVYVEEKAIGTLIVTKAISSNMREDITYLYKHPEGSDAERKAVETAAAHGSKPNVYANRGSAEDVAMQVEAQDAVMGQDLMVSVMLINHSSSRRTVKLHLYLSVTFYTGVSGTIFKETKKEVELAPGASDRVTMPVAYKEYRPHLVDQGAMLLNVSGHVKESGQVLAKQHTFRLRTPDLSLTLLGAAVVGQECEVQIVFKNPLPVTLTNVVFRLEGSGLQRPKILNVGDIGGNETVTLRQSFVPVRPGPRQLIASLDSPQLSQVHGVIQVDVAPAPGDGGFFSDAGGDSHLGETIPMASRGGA
Put plainly: Transglutaminase inhibition, IC50 at TG1.

As to `CCOC(=O)/C=C/CC[C@H](NC(=O)OCc1ccccc1)C(=O)N[C@@H](CCC(N)=O)C(=O)N1CCC[C@H]1C(=O)N[C@@H](CC(C)C)C(=O)OC` [Compound 2, N^α-benzyloxycarbonyl-{[(E)-(L)-6-amino-hept-2-ene-dicarboxylic acid]-1-ethanoyl}-L-glutaminyl-L-prolinyl-L-leucine methyl ester] (Cbz-[Nle(5E-ene,6-CO2Et)]QPL-OMe), the half-inhibitory concentration (IC50) was over 50 µM in test [1] (Table 1) and 0.02 µM in test [2] (Table 1).

Regarding `CCOC(=O)/C=C/CC[C@H](NC(=O)OCc1ccccc1)C(=O)N[C@@H](Cc1ccccc1)C(=O)OC` [Compound 3, N^α-benzyloxycarbonyl-{[(E)-(L)-6-amino-hept-2-ene-dicarboxylic acid]-1-ethanoyl}-L-phenylalanine methyl ester], the concentration for half-maximal inhibition (IC50) in test [3] (Table 1) amounted to 0.2 µM; in test [1] (Table 1), 2.5 µM; in test [2] (Table 1), 8 µM.

As for `COC(=O)[C@H](CC(C)C)NC(=O)[C@@H]1CCCN1C(=O)[C@H](CCC(N)=O)NC(=O)[C@H](CC/C=C/S(C)(=O)=O)NC(=O)OCc1ccccc1` [Compound 3.2.1, N^α-benzyloxycarbonyl-{[(E)-(L)-2-amino-6-methanesulfonyl]-hex-5-enyl}-L-glutaminyl-L-prolinyl-L-leucine methyl ester], the half-maximal inhibitory concentration (IC50) is 0.25 µM in test [3] (Table 2), over 100 µM in test [1] (Table 2) and 0.054 µM in test [2] (Table 2).

In the case of `COC(=O)[C@H](CC(C)C)NC(=O)[C@@H]1CCCN1C(=O)[C@H](CCC(N)=O)NC(=O)[C@H](CC/C=C/S(=O)(=O)N(C)C)NC(=O)OCc1ccccc1` [Compound 3.2.2], the half-inhibitory concentration (IC50) is 1.3 µM in test [3] (Table 2), over 100 µM in test [1] (Table 2) and 0.76 µM in test [2] (Table 2).

For `COC(=O)[C@H](CC(C)C)NC(=O)[C@@H]1CCCN1C(=O)[C@H](CCC(N)=O)NC(=O)[C@H](CCC1=CC(=O)CC1)NC(=O)OCc1ccccc1` [Compound 3.2.3, N^α-benzyloxycarbonyl-[(L)-2-amino-4-(3)-oxo-cyclopent-1-enyl]-butyryl-L-glutaminyl-L-prolinyl-L-leucine methyl ester], the IC50 in test [3] (Table 2) was 14 µM; in test [1] (Table 2), over 100 µM; in test [2] (Table 2) it was 18 µM.

Regarding `COC(=O)[C@H](CC(C)C)NC(=O)[C@@H]1CCCN1C(=O)[C@H](CCC(N)=O)NC(=O)[C@H](CC/C=C1\CCOC1=O)NC(=O)OCc1ccccc1` [Compound 3.2.4, N^α-benzyloxycarbonyl[(L)-2-amino-5-(2-oxo-dihydrofurane-(3E)-ylidene)]-pentanoyl-L-glutaminyl-L-prolinyl-L-Ieucine methyl ester], the IC50 was 0.4 µM in test [3] (Table 2), over 100 µM in test [1] (Table 2) and 8.9 µM in test [2] (Table 2).

In the case of `COC(=O)C(CC(C)C)NC(=O)C1CCCN1C(=O)C(CCC(N)=O)NC(=O)C(CCC=CC(=O)O)NC(=O)OCc1ccccc1` [Compound 3.2.5, N^α-benzyloxycarbonyl)-[(E)-(L)-6-amino-hept-2-ene-dicarboxylic acid]-L-glutaminyl-L-prolinyl-L-leucine methyl ester], the half-maximal inhibitory concentration (IC50) is over 100 µM in test [1] (Table 2) and 23 µM in test [2] (Table 2).

On to `CCCCCNC(=O)/C=C/CC[C@H](NC(C)=O)C(=O)N[C@@H](CCC(N)=O)C(=O)N[C@@H](CC(=O)O)C(=O)N1CCC[C@H]1C(=O)OC` [Compound 3.2.6, Nr-acetyl-{[(E)-(L)-6.amino-hept-2-ene-dicarboxylic acid]-1-pentylamido}-L-glutaminyl-L-asparatyl-L-proline methyl ester], for which the IC50 in test [3] (Table 2) is 23 µM; in test [1] (Table 2), over 100 µM; in test [2] (Table 2) it was over 100 µM.

`CC(C)OC(=O)C=CCCC(NC(=O)OCc1ccccc1)C(=O)NC(Cc1ccc(F)cc1)C(=O)N1CCCC1C(=O)O` [Compound 3.2.7, N^α-benzyloxycarbonyl)-{[(E)-(L)-6-amino-hept-2-ene-dicarboxylic acid]-1-isopropanoyl}-L-(p-fluoro-phenylalaninyl)-L-proline]: the figures for the 50% inhibitory concentration (IC50) in test [3] (Table 2), in test [1] (Table 2) and in test [2] (Table 2) were 3.7 µM, over 100 µM and 1.5 µM, respectively.

As for `COC(=O)/C=C/CC[C@H](NC(=O)OCc1ccccc1)C(=O)N[C@@H](CCC(N)=O)C(=O)N1CCC[C@H]1C(=O)OC` [Compound 4, N^α-benzyloxycarbonyl-{[(E)-(L)-6-amino-hept-2-ene-dicarboxylic acid]-1-methanoyl}-L-glutaminyl-L-proline methyl ester], the IC50 was over 50 µM in test [1] (Table 1) and 0.35 µM in test [2] (Table 1).

Turning to `CCOC(=O)/C=C/CC[C@H](NC(=O)OCc1ccccc1)C(=O)N[C@H](C(=O)N1CCC[C@H]1C(=O)NCCC(C)C)C(C)C` [Compound 5], the concentration for half-maximal inhibition (IC50) in test [1] (Table 1) is over 50 µM; in test [2] (Table 1), 0.125 µM.

For `CCOC(=O)/C=C/CC[C@@H](C(=O)N[C@H](C(=O)N1CCC[C@H]1C(=O)OC)C(C)C)N1CCCC1=O` [Compound 6, [(E)-(L)-6-(2-oxo-pyrrolidon-1-yl)-hept-2-ene-dicarboxylic acid 1-ethanoyl]-L-valinyl-L-proline methyl ester], the concentration for half-maximal inhibition (IC50) was over 50 µM in test [1] (Table 1) and 15 µM in test [2] (Table 1).
